{"source": "BindingDB's records for doi:10.7270/Q2W094D4", "about": "(Burnham Center For Chemical Genomics, 2011)", "note": "pIC50: −log10 of the molar value."}
{"target": "Hexokinase HKDC1 [W721R] (Homo sapiens, UniProt Q2TB90, W721R)", "sequence (Q2TB90 whole entry W721R)": "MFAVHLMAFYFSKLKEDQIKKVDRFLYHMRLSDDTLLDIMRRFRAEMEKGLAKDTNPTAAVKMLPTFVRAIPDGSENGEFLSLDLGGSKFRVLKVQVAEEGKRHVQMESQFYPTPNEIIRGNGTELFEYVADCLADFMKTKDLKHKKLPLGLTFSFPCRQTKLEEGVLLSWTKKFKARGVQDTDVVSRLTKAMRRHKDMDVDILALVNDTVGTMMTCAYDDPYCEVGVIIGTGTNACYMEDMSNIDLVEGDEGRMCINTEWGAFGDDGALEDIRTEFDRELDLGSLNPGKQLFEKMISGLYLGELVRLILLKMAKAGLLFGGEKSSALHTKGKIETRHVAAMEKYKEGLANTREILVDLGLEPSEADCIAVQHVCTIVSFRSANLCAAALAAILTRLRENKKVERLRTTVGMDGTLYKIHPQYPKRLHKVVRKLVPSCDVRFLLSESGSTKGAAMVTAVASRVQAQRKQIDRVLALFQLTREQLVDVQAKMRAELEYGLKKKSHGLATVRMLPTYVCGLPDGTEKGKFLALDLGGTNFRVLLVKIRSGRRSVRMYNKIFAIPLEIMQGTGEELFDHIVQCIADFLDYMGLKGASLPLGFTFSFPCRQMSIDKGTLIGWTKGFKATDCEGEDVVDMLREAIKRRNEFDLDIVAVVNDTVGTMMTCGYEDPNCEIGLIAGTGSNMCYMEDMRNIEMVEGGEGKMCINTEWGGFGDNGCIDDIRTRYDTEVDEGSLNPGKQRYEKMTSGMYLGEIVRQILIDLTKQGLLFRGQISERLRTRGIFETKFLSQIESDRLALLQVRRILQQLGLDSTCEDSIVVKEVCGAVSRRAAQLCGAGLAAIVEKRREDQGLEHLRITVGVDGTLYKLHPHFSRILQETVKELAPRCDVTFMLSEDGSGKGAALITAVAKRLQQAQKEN", "experiment": "inhibition of HKDC1 glucose phosphorylation – biochemical, W721R variant, dose response (AID 504729)"}
{"compound": "Cc1ccc(/N=C/C2=CC(Cc3ccccc3Cl)C=C([N+](=O)[O-])C2=O)c(O)c1", "note": "(stereo not drawn)", "pIC50": 4.55}
{"compound": "Oc1ccc(CN=Nc2ncc(Br)cn2)c(O)c1", "pIC50": 5.77}
{"compound": "COc1ccc(Cn2c(O)c3[nH]cccc-3c2=O)cc1", "pIC50": 4.67}
{"compound": "CC(Nc1cc(O)c2cccnc2c1O)C(=O)c1ccccc1", "note": "(stereo not drawn)", "pIC50": 4.73}
{"compound": "COC1=CC(/C=C(\\C#N)c2nc3ccc(C)cc3[nH]2)C=C([N+](=O)[O-])C1=O", "note": "(stereo not drawn) [(2Z,3E)-3-(3-methoxy-5-nitro-4-oxocyclohexa-2,5-dien-1-ylidene)-2-(5-methyl-1,3-dihydrobenzimidazol-2-ylidene)propanenitrile]", "pIC50": 4.79}
{"compound": "O=C(/C=C/c1ccco1)NCC(=O)NNC1=c2ccccc2=NC1=O", "note": "[MLS001075666]", "pIC50": 4.60}
{"compound": "N#CC(C(=O)CCl)c1nc2c(s1)CCc1ccccc1-2", "note": "(stereo not drawn) [MLS001171530]", "pIC50": 4.76}
{"compound": "Oc1c(Cl)c(N=CCc2ccccc2)c(O)c2ccccc12", "note": "[MLS002608293]", "pIC50": 5.10}
{"compound": "Cc1[nH]c2c(=O)c3c(c(=O)c=2[nH]c1C)C1C=CC3CC1", "note": "[MLS002701599]", "pIC50": 5.65}
{"compound": "Cc1ccc(Nc2c3[nH]cccc-3c(=O)n2-c2ccccc2C)cc1C", "note": "[SMR000028201]", "pIC50": 4.94}
{"compound": "Cc1cccc2c1=NC(=O)C=2NNC(=O)c1ccc(NS(=O)(=O)c2cccs2)cc1", "note": "[SMR001246714]", "pIC50": 4.81}
{"compound": "O=C1C=CC(CN=Nc2ccc([N+](=O)[O-])cn2)C(O)=C1", "note": "(stereo not drawn) [SMR001527138]", "pIC50": 5.21}
{"compound": "C=c1c(NC(C)=O)c(O)c2nc3n(c2c1O)CCC=3OC(=O)COC", "note": "[SMR001565176]", "pIC50": 5.66}
